Assays:
PRKCD (human) = PRKCD (human) (UniProt Q05655); assay: Caliper, Mobility shift assay off-chip
ALK NPM1 (human) = ALK NPM1 (human) (UniProt P06748+Q9UM73); assay: Caliper, Mobility shift assay off-chip
SRMS (human) = SRMS (human) (UniProt Q9H3Y6); assay: Caliper, Mobility shift assay off-chip
FLT1 (human) = FLT1 (human) (UniProt P17948); assay: Caliper, Mobility shift assay off-chip
PRKCG (human) = PRKCG (human) (UniProt P05129); assay: Caliper, Mobility shift assay off-chip
CAMK4 (human) = CAMK4 (human) (UniProt Q16566); assay: Caliper, Mobility shift assay off-chip
Chain of CAMK4 (human) (Q16566 whole entry, looked up): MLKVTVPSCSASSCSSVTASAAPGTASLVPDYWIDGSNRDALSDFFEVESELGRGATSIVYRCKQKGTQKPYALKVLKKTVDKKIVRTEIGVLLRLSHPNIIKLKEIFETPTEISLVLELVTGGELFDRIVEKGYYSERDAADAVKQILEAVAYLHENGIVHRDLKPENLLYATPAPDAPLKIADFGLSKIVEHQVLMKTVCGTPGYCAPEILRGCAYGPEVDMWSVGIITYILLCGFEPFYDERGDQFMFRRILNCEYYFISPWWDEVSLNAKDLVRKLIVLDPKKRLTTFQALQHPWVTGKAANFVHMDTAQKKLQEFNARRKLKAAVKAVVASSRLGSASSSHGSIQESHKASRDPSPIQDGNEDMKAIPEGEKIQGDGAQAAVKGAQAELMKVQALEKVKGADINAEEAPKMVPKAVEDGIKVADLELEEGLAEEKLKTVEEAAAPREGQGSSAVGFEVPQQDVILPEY

CDC7 (human) = CDC7 (human) (UniProt O00311); assay: Caliper, Mobility shift assay off-chip
HIPK3 (human) = HIPK3 (human) (UniProt Q9H422); assay: Caliper, Mobility shift assay off-chip
EEF2K (human) = EEF2K (human) (UniProt O00418); assay: Caliper, Mobility shift assay off-chip
MAPK12 (human) = MAPK12 (human) (UniProt P53778); assay: Caliper, Mobility shift assay off-chip
AURKB (human) = AURKB (human) (UniProt Q96GD4); assay: Caliper, Mobility shift assay off-chip
MARK2 (human) = MARK2 (human) (UniProt Q7KZI7); assay: Caliper, Mobility shift assay off-chip
PRKACB (human) = PRKACB (human) (UniProt P22694); assay: Caliper, Mobility shift assay off-chip
BRSK1 (human) = BRSK1 (human) (UniProt Q8TDC3); assay: Caliper, Mobility shift assay off-chip
Chain of BRSK1 (human) (Q8TDC3 whole entry, looked up): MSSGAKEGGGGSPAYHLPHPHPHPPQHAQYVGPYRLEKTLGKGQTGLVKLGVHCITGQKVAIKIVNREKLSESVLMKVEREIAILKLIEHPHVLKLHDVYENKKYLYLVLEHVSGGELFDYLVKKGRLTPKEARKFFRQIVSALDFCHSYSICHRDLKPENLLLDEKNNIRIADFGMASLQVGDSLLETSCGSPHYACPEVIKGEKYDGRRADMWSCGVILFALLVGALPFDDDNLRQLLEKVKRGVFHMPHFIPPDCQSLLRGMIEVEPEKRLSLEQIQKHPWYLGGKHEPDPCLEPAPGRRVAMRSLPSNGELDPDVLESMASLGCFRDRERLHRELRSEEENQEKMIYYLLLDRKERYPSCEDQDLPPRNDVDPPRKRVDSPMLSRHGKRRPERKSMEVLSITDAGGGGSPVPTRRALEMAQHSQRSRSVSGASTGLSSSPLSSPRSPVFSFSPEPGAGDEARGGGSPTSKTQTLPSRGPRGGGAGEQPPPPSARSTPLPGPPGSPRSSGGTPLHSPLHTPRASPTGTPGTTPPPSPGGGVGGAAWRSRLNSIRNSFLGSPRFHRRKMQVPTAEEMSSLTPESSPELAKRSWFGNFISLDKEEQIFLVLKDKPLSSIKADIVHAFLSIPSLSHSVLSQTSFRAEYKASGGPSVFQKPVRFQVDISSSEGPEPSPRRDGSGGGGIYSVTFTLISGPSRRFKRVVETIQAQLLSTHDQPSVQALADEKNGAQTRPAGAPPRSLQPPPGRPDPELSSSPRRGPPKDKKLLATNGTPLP

PTK2B (human) = PTK2B (human) (UniProt Q14289); assay: Caliper, Mobility shift assay off-chip
Chain of PTK2B (human) (Q14289 whole entry, looked up): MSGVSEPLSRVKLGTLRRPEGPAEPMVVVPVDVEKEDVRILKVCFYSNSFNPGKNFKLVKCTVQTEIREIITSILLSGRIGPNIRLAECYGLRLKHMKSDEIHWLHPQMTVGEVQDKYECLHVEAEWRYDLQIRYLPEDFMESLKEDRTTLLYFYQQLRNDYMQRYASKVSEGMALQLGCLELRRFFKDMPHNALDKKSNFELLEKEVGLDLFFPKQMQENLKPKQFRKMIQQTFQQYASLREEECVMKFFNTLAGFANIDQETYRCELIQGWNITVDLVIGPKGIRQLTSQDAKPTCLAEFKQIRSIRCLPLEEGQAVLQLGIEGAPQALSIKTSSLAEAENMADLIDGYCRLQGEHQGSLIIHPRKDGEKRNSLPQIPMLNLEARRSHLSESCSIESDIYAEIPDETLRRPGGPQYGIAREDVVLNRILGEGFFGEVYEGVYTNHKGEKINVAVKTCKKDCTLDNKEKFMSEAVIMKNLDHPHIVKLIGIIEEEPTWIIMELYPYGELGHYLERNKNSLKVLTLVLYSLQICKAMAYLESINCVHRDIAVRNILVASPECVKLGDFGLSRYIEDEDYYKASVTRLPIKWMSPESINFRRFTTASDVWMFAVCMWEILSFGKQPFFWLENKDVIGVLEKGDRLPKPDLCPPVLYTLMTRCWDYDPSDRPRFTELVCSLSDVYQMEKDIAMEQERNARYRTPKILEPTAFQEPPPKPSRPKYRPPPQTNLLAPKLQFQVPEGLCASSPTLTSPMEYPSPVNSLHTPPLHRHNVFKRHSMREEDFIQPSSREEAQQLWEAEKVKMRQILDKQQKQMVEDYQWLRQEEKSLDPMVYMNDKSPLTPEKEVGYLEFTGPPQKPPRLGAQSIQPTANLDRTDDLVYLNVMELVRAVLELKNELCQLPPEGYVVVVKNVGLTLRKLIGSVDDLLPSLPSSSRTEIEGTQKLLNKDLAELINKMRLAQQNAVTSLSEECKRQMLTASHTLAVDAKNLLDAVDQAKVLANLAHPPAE

DCLK2 (human) = DCLK2 (human) (UniProt Q8N568); assay: Caliper, Mobility shift assay off-chip
FYN (human) = FYN (human) (UniProt P06241); assay: Caliper, Mobility shift assay off-chip
TBK1 (human) = TBK1 (human) (UniProt Q9UHD2); assay: Caliper, Mobility shift assay off-chip
Chain of TBK1 (human) (Q9UHD2 whole entry, looked up): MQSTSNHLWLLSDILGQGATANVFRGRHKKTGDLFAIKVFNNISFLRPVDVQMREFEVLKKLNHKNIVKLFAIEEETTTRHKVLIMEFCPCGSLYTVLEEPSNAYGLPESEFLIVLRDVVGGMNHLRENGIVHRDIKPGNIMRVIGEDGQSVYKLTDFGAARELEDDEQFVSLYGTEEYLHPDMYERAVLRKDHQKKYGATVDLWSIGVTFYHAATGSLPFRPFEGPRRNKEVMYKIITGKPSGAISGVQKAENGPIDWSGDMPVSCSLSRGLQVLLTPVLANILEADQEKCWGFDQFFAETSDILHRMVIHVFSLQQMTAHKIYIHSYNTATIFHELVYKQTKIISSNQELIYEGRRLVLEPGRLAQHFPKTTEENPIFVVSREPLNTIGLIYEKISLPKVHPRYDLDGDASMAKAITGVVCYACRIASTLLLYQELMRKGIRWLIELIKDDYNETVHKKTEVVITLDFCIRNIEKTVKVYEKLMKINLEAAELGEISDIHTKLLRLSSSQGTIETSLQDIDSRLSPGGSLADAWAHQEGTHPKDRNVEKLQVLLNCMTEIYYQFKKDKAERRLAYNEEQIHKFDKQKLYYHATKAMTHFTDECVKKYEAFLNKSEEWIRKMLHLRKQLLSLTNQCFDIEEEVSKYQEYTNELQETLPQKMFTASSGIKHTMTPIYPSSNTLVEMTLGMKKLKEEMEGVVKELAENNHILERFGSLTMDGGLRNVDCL

NEK2 (human) = NEK2 (human) (UniProt P51955); assay: Caliper, Mobility shift assay off-chip
PIM1 (human) = PIM1 (human) (UniProt P11309); assay: Caliper, Mobility shift assay off-chip
Chain of PIM1 (human) (P11309 whole entry, looked up): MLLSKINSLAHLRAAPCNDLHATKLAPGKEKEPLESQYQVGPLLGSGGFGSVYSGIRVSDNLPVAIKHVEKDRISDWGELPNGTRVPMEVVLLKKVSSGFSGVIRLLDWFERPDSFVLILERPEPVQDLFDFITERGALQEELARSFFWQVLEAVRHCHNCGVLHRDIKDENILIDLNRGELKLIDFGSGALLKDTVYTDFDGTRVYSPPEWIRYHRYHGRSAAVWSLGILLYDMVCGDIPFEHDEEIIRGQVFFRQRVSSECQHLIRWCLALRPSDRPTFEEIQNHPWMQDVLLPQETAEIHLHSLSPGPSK

PDPK1 (human) = PDPK1 (human) (UniProt O15530); assay: Caliper, Mobility shift assay off-chip
TNK1 (human) = TNK1 (human) (UniProt Q13470); assay: Caliper, Mobility shift assay off-chip
Chain of TNK1 (human) (Q13470 whole entry, looked up): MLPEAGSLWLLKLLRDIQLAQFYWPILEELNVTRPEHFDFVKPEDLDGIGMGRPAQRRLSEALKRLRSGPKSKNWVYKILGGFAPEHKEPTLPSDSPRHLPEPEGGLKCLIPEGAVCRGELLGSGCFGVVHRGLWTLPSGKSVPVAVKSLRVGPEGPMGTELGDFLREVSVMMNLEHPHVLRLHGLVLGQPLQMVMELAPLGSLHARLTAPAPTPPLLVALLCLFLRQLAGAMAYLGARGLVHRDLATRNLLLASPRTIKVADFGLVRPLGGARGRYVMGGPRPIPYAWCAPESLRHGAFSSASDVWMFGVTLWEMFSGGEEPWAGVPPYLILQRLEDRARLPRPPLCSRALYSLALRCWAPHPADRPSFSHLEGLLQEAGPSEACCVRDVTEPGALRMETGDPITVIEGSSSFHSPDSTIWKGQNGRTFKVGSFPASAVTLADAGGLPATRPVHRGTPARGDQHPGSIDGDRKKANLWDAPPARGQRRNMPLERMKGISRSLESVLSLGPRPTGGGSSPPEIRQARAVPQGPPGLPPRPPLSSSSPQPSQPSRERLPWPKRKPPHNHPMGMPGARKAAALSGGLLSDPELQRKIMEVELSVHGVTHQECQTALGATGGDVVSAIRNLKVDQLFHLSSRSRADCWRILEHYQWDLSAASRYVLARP

PDGFRA (human) = PDGFRA (human) (UniProt P16234); assay: Caliper, Mobility shift assay off-chip
PRKAA1 (human) = PRKAA1 (human) (UniProt Q13131); assay: Caliper, Mobility shift assay off-chip
CSK (human) = CSK (human) (UniProt P41240); assay: Caliper, Mobility shift assay off-chip
ITK (human) = ITK (human) (UniProt Q08881); assay: Caliper, Mobility shift assay off-chip
Chain of ITK (human) (Q08881 whole entry, looked up): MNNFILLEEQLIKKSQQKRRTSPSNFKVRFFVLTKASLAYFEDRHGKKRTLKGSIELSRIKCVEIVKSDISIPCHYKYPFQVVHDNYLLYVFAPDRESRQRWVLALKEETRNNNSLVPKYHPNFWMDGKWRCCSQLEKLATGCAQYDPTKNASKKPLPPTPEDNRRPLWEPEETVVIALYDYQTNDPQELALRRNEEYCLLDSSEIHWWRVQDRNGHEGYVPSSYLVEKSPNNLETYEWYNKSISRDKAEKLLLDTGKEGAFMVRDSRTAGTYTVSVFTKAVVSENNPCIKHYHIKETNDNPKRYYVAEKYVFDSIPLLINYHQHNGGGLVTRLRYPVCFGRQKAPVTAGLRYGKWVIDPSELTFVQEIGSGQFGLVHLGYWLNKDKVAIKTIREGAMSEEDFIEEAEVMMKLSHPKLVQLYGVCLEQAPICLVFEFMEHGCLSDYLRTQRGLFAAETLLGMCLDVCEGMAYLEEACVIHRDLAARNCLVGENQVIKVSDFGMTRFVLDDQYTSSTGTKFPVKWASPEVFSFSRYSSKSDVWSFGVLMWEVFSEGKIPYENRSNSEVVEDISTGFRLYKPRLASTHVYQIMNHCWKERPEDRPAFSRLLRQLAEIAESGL

IRAK4 (human) = IRAK4 (human) (UniProt Q9NWZ3); assay: Caliper, Mobility shift assay off-chip
PHKG1 (human) = PHKG1 (human) (UniProt Q16816); assay: Caliper, Mobility shift assay off-chip
Chain of PHKG1 (human) (Q16816 whole entry, looked up): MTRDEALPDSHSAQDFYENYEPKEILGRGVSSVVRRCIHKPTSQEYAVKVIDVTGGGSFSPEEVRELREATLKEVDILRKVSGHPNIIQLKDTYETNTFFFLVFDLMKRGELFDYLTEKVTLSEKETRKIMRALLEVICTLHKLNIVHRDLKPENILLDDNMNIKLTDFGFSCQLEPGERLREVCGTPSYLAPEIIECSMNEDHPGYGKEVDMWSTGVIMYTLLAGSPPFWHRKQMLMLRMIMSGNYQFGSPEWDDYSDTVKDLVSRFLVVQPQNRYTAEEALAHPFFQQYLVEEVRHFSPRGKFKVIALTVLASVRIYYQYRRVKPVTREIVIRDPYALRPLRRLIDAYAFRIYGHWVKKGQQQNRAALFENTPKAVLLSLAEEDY

SGK2 (human) = SGK2 (human) (UniProt Q9HBY8); assay: Caliper, Mobility shift assay off-chip
EIF2AK3 (human) = EIF2AK3 (human) (UniProt Q9NZJ5); assay: IMAP-FP
PLK2 (human) = PLK2 (human) (UniProt Q9NYY3); assay: IMAP-FP
PKN1 (human) = PKN1 (human) (UniProt Q16512); assay: IMAP-FP
SRPK1 (human) = SRPK1 (human) (UniProt Q96SB4); assay: IMAP-FP
EIF2AK2 (human) = EIF2AK2 (human) (UniProt P19525); assay: IMAP-FP

`COc1cc2c(Oc3ccc4[nH]c(C)cc4c3F)ncnc2cc1OCCCN1CCCC1` showed an inhibition (PRKCD (human); compound 0.02 µM) of 11.1%, an inhibition (PRKCD (human); compound 0.2 µM) of -2.2% and an inhibition (ALK NPM1 (human); compound 0.02 µM) of 3.6%. The inhibition (ALK NPM1 (human); compound 0.2 µM) was 5.1%, the inhibition (SRMS (human); compound 0.02 µM) was -0.7% and the inhibition (SRMS (human); compound 0.2 µM) was -1.7%. For the same compound, the inhibition (FLT1 (human); compound 0.02 µM) was 91.6%, the inhibition (FLT1 (human); compound 0.2 µM) was 102% and the inhibition (PRKCG (human); compound 0.02 µM) was 3.8%. The inhibition (PRKCG (human); compound 0.2 µM) was 4.1%, the inhibition (CAMK4 (human); compound 0.02 µM) was -4% and the inhibition (CAMK4 (human); compound 0.2 µM) was -0.6%. For the same compound, the inhibition (CDC7 (human); compound 0.02 µM) was -3.4%, the inhibition (CDC7 (human); compound 0.2 µM) was -0.7% and the inhibition (HIPK3 (human); compound 0.02 µM) was -6.3%. For the same compound, the inhibition (HIPK3 (human); compound 0.2 µM) was 0.5%, the inhibition (EEF2K (human); compound 0.02 µM) was -5.2% and the inhibition (EEF2K (human); compound 0.2 µM) was 3.1%. It also gave an inhibition (MAPK12 (human); compound 0.02 µM) of -4.8%, an inhibition (MAPK12 (human); compound 0.2 µM) of -0.1% and an inhibition (AURKB (human); compound 0.02 µM) of 4.5%. The inhibition (AURKB (human); compound 0.2 µM) was 8.3%, the inhibition (MARK2 (human); compound 0.02 µM) was 6.9% and the inhibition (MARK2 (human); compound 0.2 µM) was 9.2%. It also gave an inhibition (PRKACB (human); compound 0.02 µM) of 6.8%, an inhibition (PRKACB (human); compound 0.2 µM) of -7.7% and an inhibition (BRSK1 (human); compound 0.02 µM) of 2.2%. For the same compound, the inhibition (BRSK1 (human); compound 0.2 µM) was 7.5%, the inhibition (PTK2B (human); compound 0.02 µM) was -1.9% and the inhibition (PTK2B (human); compound 0.2 µM) was -5.4%. It also gave an inhibition (DCLK2 (human); compound 0.02 µM) of -1.8%, an inhibition (DCLK2 (human); compound 0.2 µM) of -0.5% and an inhibition (FYN (human); compound 0.02 µM) of 13.7%. It also gave an inhibition (FYN (human); compound 0.2 µM) of 35.9%, an inhibition (TBK1 (human); compound 0.02 µM) of -1.8% and an inhibition (TBK1 (human); compound 0.2 µM) of -1.6%. It also gave an inhibition (NEK2 (human); compound 0.02 µM) of 6.3%, an inhibition (NEK2 (human); compound 0.2 µM) of 5.3% and an inhibition (PIM1 (human); compound 0.02 µM) of -2.8%. The inhibition (PIM1 (human); compound 0.2 µM) was -8.3%, the inhibition (PDPK1 (human); compound 0.02 µM) was -2.1% and the inhibition (PDPK1 (human); compound 0.2 µM) was -4.8%. For the same compound, the inhibition (TNK1 (human); compound 0.02 µM) was -2.8%, the inhibition (TNK1 (human); compound 0.2 µM) was -1.2% and the inhibition (PDGFRA (human); compound 0.02 µM) was 39.2%. For the same compound, the inhibition (PDGFRA (human); compound 0.2 µM) was 86.9%, the inhibition (PRKAA1 (human); compound 0.2 µM) was 7.1% and the inhibition (CSK (human); compound 0.02 µM) was -6.7%. For the same compound, the inhibition (CSK (human); compound 0.2 µM) was -6.3%, the inhibition (ITK (human); compound 0.02 µM) was 6.7% and the inhibition (ITK (human); compound 0.2 µM) was 5.5%. It also gave an inhibition (IRAK4 (human); compound 0.02 µM) of -5.6%, an inhibition (IRAK4 (human); compound 0.2 µM) of -5.6% and an inhibition (PHKG1 (human); compound 0.02 µM) of -5.1%. For the same compound, the inhibition (PHKG1 (human); compound 0.2 µM) was -3.5%, the inhibition (SGK2 (human); compound 0.02 µM) was 4.4% and the inhibition (SGK2 (human); compound 0.2 µM) was 3.9%. For the same compound, the inhibition (EIF2AK3 (human); compound 0.02 µM) was -18%, the inhibition (EIF2AK3 (human); compound 0.2 µM) was -16.8% and the inhibition (PLK2 (human); compound 0.02 µM) was -0.9%. The inhibition (PLK2 (human); compound 0.2 µM) was -1.6%, the inhibition (PKN1 (human); compound 0.02 µM) was -35.8% and the inhibition (PKN1 (human); compound 0.2 µM) was -32.5%. The inhibition (SRPK1 (human); compound 0.2 µM) was -5.6%, the inhibition (EIF2AK2 (human); compound 0.02 µM) was -13.8% and the inhibition (EIF2AK2 (human); compound 0.2 µM) was -6.6%.
For `CNC(=O)c1ccccc1Sc1ccc2c(/C=C/c3ccccn3)n[nH]c2c1`, the inhibition (PRKCD (human); compound 0.001 µM) was 15.6%, the inhibition (PRKCD (human); compound 0.02 µM) was -0.9% and the inhibition (ALK NPM1 (human); compound 0.001 µM) was 1.1%. The inhibition (ALK NPM1 (human); compound 0.02 µM) was -0.3%, the inhibition (SRMS (human); compound 0.001 µM) was -4.5% and the inhibition (SRMS (human); compound 0.02 µM) was -4.9%. It also gave an inhibition (FLT1 (human); compound 0.001 µM) of 25.3%, an inhibition (FLT1 (human); compound 0.02 µM) of 99.3% and an inhibition (PRKCG (human); compound 0.001 µM) of 1.2%. The inhibition (PRKCG (human); compound 0.02 µM) was 17.3%, the inhibition (CAMK4 (human); compound 0.001 µM) was -4% and the inhibition (CAMK4 (human); compound 0.02 µM) was -4.7%. The inhibition (CDC7 (human); compound 0.001 µM) was -4.9%, the inhibition (CDC7 (human); compound 0.02 µM) was -5.8% and the inhibition (HIPK3 (human); compound 0.001 µM) was -5.2%. For the same compound, the inhibition (HIPK3 (human); compound 0.02 µM) was -1.1%, the inhibition (EEF2K (human); compound 0.001 µM) was -4.8% and the inhibition (EEF2K (human); compound 0.02 µM) was 2.3%. The inhibition (MAPK12 (human); compound 0.001 µM) was -3.7%, the inhibition (MAPK12 (human); compound 0.02 µM) was -4.6% and the inhibition (AURKB (human); compound 0.001 µM) was 5.9%. The inhibition (AURKB (human); compound 0.02 µM) was 48.4%, the inhibition (MARK2 (human); compound 0.001 µM) was 3.5% and the inhibition (MARK2 (human); compound 0.02 µM) was 11.8%. The inhibition (PRKACB (human); compound 0.001 µM) was -7.3%, the inhibition (PRKACB (human); compound 0.02 µM) was -10.6% and the inhibition (BRSK1 (human); compound 0.001 µM) was -2.4%. For the same compound, the inhibition (BRSK1 (human); compound 0.02 µM) was 20.1%, the inhibition (PTK2B (human); compound 0.001 µM) was -4.6% and the inhibition (PTK2B (human); compound 0.02 µM) was -1.4%. The inhibition (DCLK2 (human); compound 0.001 µM) was -2.7%, the inhibition (DCLK2 (human); compound 0.02 µM) was -2.1% and the inhibition (FYN (human); compound 0.001 µM) was 7.3%. The inhibition (FYN (human); compound 0.02 µM) was 6.1%, the inhibition (TBK1 (human); compound 0.001 µM) was -3.3% and the inhibition (TBK1 (human); compound 0.02 µM) was -2%. For the same compound, the inhibition (NEK2 (human); compound 0.001 µM) was 5.7%, the inhibition (NEK2 (human); compound 0.02 µM) was 4.7% and the inhibition (PIM1 (human); compound 0.001 µM) was -5.1%. It also gave an inhibition (PIM1 (human); compound 0.02 µM) of -3.4%, an inhibition (PDPK1 (human); compound 0.001 µM) of -3.6% and an inhibition (PDPK1 (human); compound 0.02 µM) of -6.4%. It also gave an inhibition (TNK1 (human); compound 0.001 µM) of 26.9%, an inhibition (TNK1 (human); compound 0.02 µM) of 24.8% and an inhibition (PDGFRA (human); compound 0.001 µM) of 33.1%. It also gave an inhibition (PRKAA1 (human); compound 0.001 µM) of 7.1%, an inhibition (PRKAA1 (human); compound 0.02 µM) of 10.1% and an inhibition (CSK (human); compound 0.001 µM) of -4.6%. The inhibition (CSK (human); compound 0.02 µM) was -6.7%, the inhibition (ITK (human); compound 0.001 µM) was 2.8% and the inhibition (ITK (human); compound 0.02 µM) was 1.9%. It also gave an inhibition (IRAK4 (human); compound 0.001 µM) of -5.7%, an inhibition (IRAK4 (human); compound 0.02 µM) of -6.7% and an inhibition (PHKG1 (human); compound 0.001 µM) of -7%. For the same compound, the inhibition (PHKG1 (human); compound 0.02 µM) was -4.4%, the inhibition (SGK2 (human); compound 0.001 µM) was -1.7% and the inhibition (SGK2 (human); compound 0.02 µM) was 4.4%. The inhibition (EIF2AK3 (human); compound 0.001 µM) was -16.9%, the inhibition (EIF2AK3 (human); compound 0.02 µM) was -10.8% and the inhibition (PLK2 (human); compound 0.001 µM) was -3%. For the same compound, the inhibition (PLK2 (human); compound 0.02 µM) was 1.7%, the inhibition (PKN1 (human); compound 0.001 µM) was -26.9% and the inhibition (PKN1 (human); compound 0.02 µM) was -21.6%. The inhibition (SRPK1 (human); compound 0.001 µM) was -6.9%, the inhibition (SRPK1 (human); compound 0.02 µM) was -5.3% and the inhibition (EIF2AK2 (human); compound 0.001 µM) was -26.3%. It also gave an inhibition (EIF2AK2 (human); compound 0.02 µM) of -20.8%.

Source: the kinase profiling compilation of Christmann-Franck et al. (2016)
